Reference: patent US12472180B2, “Combinations for treatment of NAFLD/NASH and related diseases” (Pfizer Inc., priority 2020, dated 2025)
Structures can show the parent of a compound that is named as a salt.

Experiments:
SREBP-1 = test: Nuclear SREBP-1 localization in liver of Western diet fed rats (Western blot); format: in vivo, rat; conditions: high dose monotherapy (A 10 mg/kg QD; D 30 mg/kg BID); pooled liver samples
Method: A randomized, vehicle-controlled, 8-parallel arm study was conducted in male Sprague-Dawley rats (Charles River (Boston, MA)) to obtain circulating and hepatic TG levels. Standard laboratory conditions were used to house 96 rats (˜200 g); they were double housed and kept under 12:12-hour reverse light-dark schedule (lights off at 8:00 AM). Rats were randomized into chow or Western diet groups and dose groups upon arrival and were given a 14-day lead-in period on either standard rat chow or Western diet prior to the start of the study. Standard Laboratory Rodent chow diet, 5053, was from LabDiet (PMI, St Louis, Missouri). Western Diet, D12079Bi, was from Research Diets (New Brunswick, NJ). […]
Nuclear and Membrane fractions were prepared by ultracentrifugation using standard methods from a portion of the pulverized liver samples, that were pooled per treatment group. Samples from the nuclear extract and the membrane fractions were analyzed by Western blotting for SREBP1. […] Nuclear SREBP1 levels were quantified using relative units and normalized to Histone 2B to control for sample loss during the nuclear fractionation and gel loading.

αSMA and COL1A1 = test: Hepatic fibrogenesis gene expression in CDAHFD fed rats (qPCR); format: in vivo, rat; conditions: A 5 mg/kg, D 30 mg/kg twice daily, 6 weeks
Source text: Standard laboratory conditions were used to house 60 rats (˜200 g); they were double housed and kept under 12:12-hour reverse light-dark schedule (lights off at 8:00 AM). Rats were fed choline deficient and high fat diet (CDAHFD) beginning 6-weeks prior to initiation of the study. […] Animals (n=12) remaining on normal chow throughout the study and administered twice-daily vehicle were used as a control group. Blood samples were collected prior to starting compound administration and 3- and 6-week post compound administration for the assessment of circulating markers. Shearwave elastography (Aixplorer Ultimate imager, Supersoinc imagine) measurements were made at Week −3, Week 0 (prior to 1st dose), Week 3 and Week 6 to assess inflammation and fibrosis progression over time. Histology was assessed following 6-weeks of drug administration which corresponded to 12 weeks on the CDAHFD. Results are provided as an average of animals per each dosing group.
Following the 12-weeks on CDAHFD, the animals were sacrificed by CO2 asphyxiation. The right lateral, medial and left lateral lobes of the liver were harvested. Sections were taken from the left lateral, right medial and right lateral lobes and fixed in formalin and processed to paraffin blocks per animal. One section of left lateral lobe per animal was cryopreserved in optimal cutting temperature (OCT) compound. The remainder of the liver from each animal was frozen and rapidly pulverized on an aluminum block cooled in liquid N2, ensuring the tissue remained frozen throughout the pulverization. The pulverized tissue was transferred and stored at −80° C. until analysis. A portion of the pulverized liver sample from each animal was processed and analyzed for gene expression markers of fibrogenesis. Rat taqman probes against αSMA and COL1A1 were all assessed using Actb as housekeeping gene on qPCR.

[1] = test system: ACC1, FASN, SCD1, PCSK9 and SREBP-1c; test: Hepatic lipogenic gene expression in Western diet fed rats (qPCR); format: in vivo, rat; conditions: Compound A: ACC1, FASN (high dose only), SCD, but not PCSK9 and SREBP1
Method: (§1) A randomized, vehicle-controlled, 8-parallel arm study was conducted in male Sprague-Dawley rats (Charles River (Boston, MA)) to obtain circulating and hepatic TG levels. Standard laboratory conditions were used to house 96 rats (˜200 g); they were double housed and kept under 12:12-hour reverse light-dark schedule (lights off at 8:00 AM). Rats were randomized into chow or Western diet groups and dose groups upon arrival and were given a 14-day lead-in period on either standard rat chow or Western diet prior to the start of the study. Standard Laboratory Rodent chow diet, 5053, was from LabDiet (PMI, St Louis, Missouri). Western Diet, D12079Bi, was from Research Diets (New Brunswick, NJ).
On the last day of the study (Day 28), rats were sacrificed for tissue collection after a 4 hour fast, 2 hours post-dose: two hours post-dose, blood for determining plasma analytes was collected via lateral tail vein and then the animals were sacrificed by CO2 asphyxiation. Blood was transferred to BD Microtainer tubes coated with K2EDTA (PN365974), centrifuged at 4° C. and the plasma transferred to a 96-well microtitre plate and stored at −20° C. […]
Another portion of the pulverized liver was processed and analyzed for lipogenic gene expression. Rat taqman probes against ACC1, FASN, SCD1, PCSK9 and SREBP-1c were all assessed using Actb as housekeeping gene on qPCR.

[2] = test system: Western diet fed Sprague Dawley rats; test: Hepatic triglyceride (steatosis) in Western diet fed rats; format: in vivo, rat; conditions: or both, Day 28
Method: as §1
(§2) For these studies, vehicle was prepared to make a 0.5% (wt/volume) of methyl cellulose (MC, Sigma Aldrich; 274429) in deionized water.
On the last day of the study (Day 28), rats were sacrificed for tissue collection after a 4 hour fast, 2 hours post-dose: two hours post-dose, blood for determining plasma analytes was collected via lateral tail vein and then the animals were sacrificed by CO2 asphyxiation. Blood was transferred to BD Microtainer tubes coated with K2EDTA (PN365974), centrifuged at 4° C. and the plasma transferred to a 96-well microtitre plate and stored at −20° C. Livers were rapidly removed, freeze-clamped in a Wollenberg clamp pre-cooled in liquid N2 individually wrapped in aluminum foil and subsequently stored at −80° C.
Tissue pulverization: Frozen livers were rapidly pulverized on an aluminum block cooled in liquid N2, ensuring the tissue remained frozen throughout the pulverization. The pulverized tissues were transferred and stored in 7 mL polypropylene conical tubes at −80° C. until analysis.
Extraction for hepatic triglyceride: Approximately 50 to 100 mg of pulverized tissue was added to a 2 mL lysing matrix D tube (MP Bio) containing 800 μL ice cold 1:1 CHCl3:MEOH. Samples were immediately extracted at 4° C. using Qiagen Tissue Lyser II (Qiagen Cat No. 85300) for 4 minutes at 30 Hz. The homogenate was then transferred to 13×100 mm glass tubes and placed on ice. The lysis tubes were then rinsed with 800 μL of 1:1 CHCl3:MeOH, vortexed for 30 seconds and added to the 13×100 mm glass tubes. While on ice, 2.4 ml of 100% CHCl3 was added to all glass vials to bring the ratio of CHCl3:MeOH to 4:2. Samples were then placed in the −20° C. freezer overnight. On the following day, 1.75 mL 1M KCl H2O was added to bring the ratio to 4:2:1.75 ratio CHCl3:MeOH:H2O. Samples were then vortexed for 30 seconds and centrifuged at 1500 rpm×15 min., at 4° C. After centrifugation, the organic phase was transferred to a fresh 13×100 mm extraction tube, dried down at 37° C. under N2 and re-suspended in 750 μL CHCl3. […]

[3] = test system: Western diet fed Sprague Dawley rats; test: Plasma triglycerides (fed and fasted) in Western diet fed Sprague Dawley rats; format: in vivo, rat; conditions: 4 hour fast
Method: as §1, §2
Fed plasma analytes: Blood for determining fed plasma TG concentrations was collected 2 hours post dose (2 hours into the dark cycle) via lateral tail vein, transferred to BD Microtainer tubes coated with dipotassium ethylenediaminetetraacetic acid (K2EDTA) (PN365974), and centrifuged at 4° C. The resulting plasma samples were then analyzed on a Siemens Chemistry XPT clinical analyzer (Malven, PA) using Siemens triglycerides_2 assay reagents (ref 10335892).
Fasted plasma analytes: Blood for determining fasted plasma TG was collected after a 4 hour fast, 2 hours post-dose (2 hours into the dark cycle) via lateral tail vein, transferred to BD Microtainer tubes coated with K2EDTA (PN365974), and centrifuged at 4° C. The resulting plasma samples were then analyzed on a Siemens Chemistry XPT clinical analyzer (Malven, PA) using Siemens triglycerides 2 assay reagents (ref 10335892).

[4] = Thermodynamic stability of crystalline forms versus water activity; format: physicochemical; conditions: ambient temperature; about 0.2 = 20% RH
[5] = high dose: A 10 mg/kg QD, D 30 mg/kg BID
[6] = low dose: A 1 mg/kg QD, D 5 mg/kg BID

| SMILES | nuclear SREBP-1 localization relative to vehicle treated Western diet fed rats (SREBP-1) | hepatic COL1A1 gene expression (αSMA and COL1A1) | hepatic αSMA gene expression (αSMA and COL1A1) | hepatic lipogenic gene expression (ACC1, FASN, SCD1, SREBP-1c, PCSK9) relative to Western diet fed vehicle treated animals [1] | reduction in steatosis (hepatic triglyceride), relative to vehicle administered Western diet fed rats [2, 5] | reduction in steatosis (hepatic triglyceride), relative to vehicle administered Western diet fed rats [2, 6] | increase in fasted plasma TG, relative to vehicle administered Western diet fed rats ([3]; high dose: Compound A 10 mg/kg QD monotherapy) | increase in fasted plasma TG, relative to vehicle administered Western diet fed rats ([3]; low dose: Compound A 1 mg/kg QD monotherapy) | reduction of fasted plasma TG, relative to vehicle administered Western diet fed rats ([3]; high dose: Compound D 30 mg/kg BID monotherapy) | reduction of fasted plasma TG, relative to vehicle administered Western diet fed rats ([3]; low dose: Compound D 5 mg/kg BID monotherapy) | water activity at which the form is thermodynamically stable [4] |
| --- | --- | --- | --- | --- | --- | --- | --- | --- | --- | --- | --- |
| COc1cc(C(=O)N2CCC3(CC2)CC(=O)c2c(cnn2C(C)C)C3)cc(-c2ccc(C(=O)O)cc2)n1 [Compound A, 4-(4-(1-isopropyl-7-oxo-1,4,6,7-tetrahydrospiro[indazole-5,4′-piperidine]-1′-carbonyl)-6-methoxypyridin-2-yl)benzoic acid] | increased nuclear localization of SREBP-1 | reduced hepatic αSMA and COL1A1 gene expression | reduced hepatic αSMA and COL1A1 gene expression | trended to further increase | 53% | 36% | 1.7 fold | 2.4 fold | – | – | – |
| CCOc1cccnc1Oc1cncc(-c2ncc(C(=O)N[C@H]3CCOC3)cn2)c1 [Compound D, (S)-2-(5-((3-ethoxypyridin-2-yl)oxy)pyridin-3-yl)-N-(tetrahydrofuran-3-yl)pyrimidine-5-carboxamide] | reduced SREBP-1 nuclear localization | reduced hepatic αSMA and COL1A1 gene expression | reduced hepatic αSMA and COL1A1 gene expression | decreased expression of all of the lipogenic genes | 30% | 25% | – | – | 35% | 20% | – |
| COc1cc(C(=O)N2CCC3(CC2)CC(=O)c2c(cnn2C(C)C)C3)cc(-c2ccc(C(=O)O)cc2)n1 [Form 1 of Compound A, 4-(4-(1-isopropyl-7-oxo-1,4,6,7-tetrahydrospiro[indazole-5,4′-piperidine]-1′-carbonyl)-6-methoxypyridin-2-yl)benzoic acid anhydrous tris salt] | – | – | – | – | – | – | – | – | – | – | < 0.2 |
| COc1cc(C(=O)N2CCC3(CC2)CC(=O)c2c(cnn2C(C)C)C3)cc(-c2ccc(C(=O)O)cc2)n1 [Form 2 of Compound A] | – | – | – | – | – | – | – | – | – | – | > 0.2 |
